From ChEMBL document CHEMBL5113508, “Targeting Human CD22/Siglec-2 with Dimeric Sialosides as Novel Oligosaccharide Mimetics” (J Med Chem, 2022)

How the values were obtained:
[1] = molecular target: B-cell receptor CD22 (Homo sapiens) (UniProt P20273); assay: (§1) Inhibition of CD22 in human Daudi cells assessed as relative inhibitory potency in presence of biotinylated dimeric 2-(78-biotinoylamino-1,4,7,10,13,16-hexaoxa-octadecyl)-1,4-bis(2-aza-l-oxo-8-(sodium(5-acetamido-3,5,9-trideoxy-9-(4-phenylbenzamido)-D-glycero-a-D-galacto-non-2-ulopyranosyloxyonate))-5-thia-octyl) benzene preincubated for 15 mins followed by probe addition incubated for 20 mins by flow cytometric analysis relative to 1,4-bis-(2-Aza-1-oxo-8-(sodium(5-acetamido-3,5,9-trideoxy-9-(4-phenylbenzamido)-D-glycero-alpha-D-galacto-non-2-ulopyranosyloxyonate))-5-thia-octyl)benzene; assay type: cell-based; details: time 35.0 min
[2] = molecular target: B-cell receptor CD22 (Homo sapiens) (UniProt P20273); assay: Inhibition of to hFc tagged CD22 (unknown origin) assessed as relative inhibitory potency incubated for 4 hrs by ELISA relative to 1,4-bis-(2-Aza-1-oxo-8-(sodium(5-acetamido-3,5,9-trideoxy-9-(4-phenylbenzamido)-D-glycero-alpha-D-galacto-non-2-ulopyranosyloxyonate))-5-thia-octyl)benzene
B-cell receptor CD22 [3] = molecular target: T1, B-cell receptor CD22 (Homo sapiens, UniProt P20273); assay: Inhibition of CD22 in human Daudi cells preincubated for 15 mins followed by biotinylated dimeric 2-(78-biotinoylamino-1,4,7,10,13,16-hexaoxa-octadecyl)-1,4-bis(2-aza-l-oxo-8-(sodium(5-acetamido-3,5,9-trideoxy-9-(4-phenylbenzamido)-D-glycero-a-D-galacto-non-2-ulopyranosyloxyonate))-5-thia-octyl) benzene probe addition incubated for 20 mins by flow cytometric analysis; assay type: cell-based
T1 sequence (P20273 whole entry): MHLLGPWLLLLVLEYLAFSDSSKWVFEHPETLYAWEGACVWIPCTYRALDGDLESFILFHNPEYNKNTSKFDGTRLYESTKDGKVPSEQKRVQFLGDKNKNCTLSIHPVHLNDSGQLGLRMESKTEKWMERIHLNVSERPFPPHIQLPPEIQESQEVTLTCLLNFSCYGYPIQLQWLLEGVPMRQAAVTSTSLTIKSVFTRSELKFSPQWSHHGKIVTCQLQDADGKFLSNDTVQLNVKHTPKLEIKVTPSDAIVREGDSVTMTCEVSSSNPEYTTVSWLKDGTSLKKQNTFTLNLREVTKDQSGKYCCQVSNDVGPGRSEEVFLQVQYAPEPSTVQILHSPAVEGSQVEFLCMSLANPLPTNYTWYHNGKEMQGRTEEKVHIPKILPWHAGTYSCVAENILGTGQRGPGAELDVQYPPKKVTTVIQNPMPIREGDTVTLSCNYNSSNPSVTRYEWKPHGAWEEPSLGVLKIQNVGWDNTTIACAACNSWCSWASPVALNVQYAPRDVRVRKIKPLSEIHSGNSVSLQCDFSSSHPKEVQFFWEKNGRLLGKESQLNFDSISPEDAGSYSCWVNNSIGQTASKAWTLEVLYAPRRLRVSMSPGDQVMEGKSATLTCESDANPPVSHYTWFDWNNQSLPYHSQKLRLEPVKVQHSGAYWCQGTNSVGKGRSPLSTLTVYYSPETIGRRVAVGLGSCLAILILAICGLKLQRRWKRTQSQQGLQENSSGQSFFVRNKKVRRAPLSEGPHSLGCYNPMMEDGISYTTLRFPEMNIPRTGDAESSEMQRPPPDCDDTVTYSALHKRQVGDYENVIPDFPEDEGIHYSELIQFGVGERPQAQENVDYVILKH

[4] = molecular target: B-cell receptor CD22 (Homo sapiens) (UniProt P20273); assay: as §1, with “CD22 (unknown origin)” for “CD22”, “1,4-Bis-(2-aza-1-oxo-8-(sodium-(5-acetamido-3,5-dideoxy-D-glycero-alpha-D-galacto-non-2-ulopyranosyloxyonate))-5-thia-octyl)benzene” for “1,4-bis-(2-Aza-1-oxo-8-(sodium(5-acetamido-3,5,9-trideoxy-9-(4-phenylbenzamido)-D-glycero-alpha-D-galacto-non-2-ulopyranosyloxyonate))-5-thia-octyl)benzene”; assay type: cell-based; details: time 35.0 min
[5] = molecular target: B-cell receptor CD22 (Homo sapiens) (UniProt P20273); assay: Inhibition of hFc tagged CD22 (unknown origin) assessed as relative inhibitory potency incubated for 4 hrs by ELISA relative to 1,4-Bis-(2-aza-1-oxo-8-(sodium-(5-acetamido-3,5-dideoxy-D-glycero-alpha-D-galacto-non-2-ulopyranosyloxyonate))-5-thia-octyl)benzene
B-cell receptor CD22 [6] = molecular target: T1, B-cell receptor CD22; assay: Inhibition hFc tagged CD22 incubated for 4 hrs by ELISA
[7] = molecular target: B-cell receptor CD22 (Homo sapiens) (UniProt P20273); assay: Antagonist activity at CD22 in IgM stimulated human Daudi cells assessed as increase in calcium flux incubated for 10 mins by flow cytometric analysis; assay type: cell-based; details: dose 2-200 µM, DDE = dose-dependent effect

Row | SMILES | fold change (FC) [1] | fold change (FC) [2] | other results
1 | CC(=O)N[C@H]1[C@H]([C@H](O)[C@H](O)CNC(=O)c2ccc(-c3ccccc3)cc2)O[C@@](OCCCSCCNC(=O)c2ccc(C(=O)NCCSCCCO[C@]3(C(=O)O)C[C@H](O)[C@@H](NC(C)=O)[C@H]([C@H](O)[C@H](O)CNC(=O)c4ccc(-c5ccccc5)cc4)O3)c(OCCOCCOCCOCCOCCOCCN)c2)(C(=O)O)C[C@@H]1O | 0.14 |  | 
2 | CC(=O)N[C@H]1[C@H]([C@H](O)[C@H](O)CNC(=O)c2ccc(-c3ccsc3)cc2)O[C@@](OCCCSCCNC(=O)c2ccc(C(=O)NCCSCCCO[C@]3(C(=O)O)C[C@H](O)[C@@H](NC(C)=O)[C@H]([C@H](O)[C@H](O)CNC(=O)c4ccc(-c5ccsc5)cc4)O3)cc2)(C(=O)O)C[C@@H]1O | 0.71 | 1.6 | 
3 | CC(=O)N[C@H]1[C@H]([C@H](O)[C@H](O)CNC(=O)c2ccc(-c3ccccc3)cc2)O[C@@](OCCCSCCNC(=O)c2ccc(C(=O)NCCSCCCO[C@]3(C(=O)O)C[C@H](NS(=O)(=O)O)[C@@H](NC(C)=O)[C@H]([C@H](O)[C@H](O)CNC(=O)c4ccc(-c5ccccc5)cc4)O3)c(OCCOCCOCCOCCOCCOCCN)c2)(C(=O)O)C[C@@H]1NS(=O)(=O)O | 34 |  | 
4 | CC(=O)N[C@H]1[C@H]([C@H](O)[C@H](O)CNC(=O)c2ccc(-c3cccs3)s2)O[C@@](OCCCSCCNC(=O)c2ccc(C(=O)NCCSCCCO[C@]3(C(=O)O)C[C@H](O)[C@@H](NC(C)=O)[C@H]([C@H](O)[C@H](O)CNC(=O)c4ccc(-c5cccs5)s4)O3)cc2)(C(=O)O)C[C@@H]1O | 0.07 | 4.5 | 
5 | CC(=O)N[C@H]1[C@H]([C@H](O)[C@H](O)CNC(=O)c2ccc(-c3ccccc3)cc2)O[C@@](OCCCSCCNC(=O)CCCCC(=O)NCCSCCCO[C@]2(C(=O)O)C[C@H](O)[C@@H](NC(C)=O)[C@H]([C@H](O)[C@H](O)CNC(=O)c3ccc(-c4ccccc4)cc3)O2)(C(=O)O)C[C@@H]1O | 0.073 | 0.77 | IC50 (B-cell receptor CD22 [3]): 24000 nM
6 | CC(=O)N[C@H]1[C@H]([C@H](O)[C@H](O)CNC(=O)c2ccc(-c3ccccc3)cc2)O[C@@](OCCCSCCNC(=O)c2ccc(C(=O)NCCSCCCO[C@]3(C(=O)O)C[C@H](O)[C@@H](NC(C)=O)[C@H]([C@H](O)[C@H](O)CNC(=O)c4ccc(-c5cccs5)cc4)O3)cc2)(C(=O)O)C[C@@H]1O | 3.7 | 1.2 | 
7 | CC(=O)N[C@H]1[C@H]([C@H](O)[C@H](O)CO)O[C@@](OCCCSCCNC(=O)c2ccc(C(=O)NCCSCCCO[C@]3(C(=O)O)C[C@H](O)[C@@H](NC(C)=O)[C@H]([C@H](O)[C@H](O)CO)O3)cc2)(C(=O)O)C[C@@H]1O | 0.00034 | 0.01 | 
8 | CC(=O)N[C@H]1[C@H]([C@H](O)[C@H](O)CNC(=O)c2ccc(-c3ccccc3)cc2)O[C@@](OCCCSCCNC(=O)c2ccc(C(=O)NCCSCCCO[C@]3(C(=O)O)C[C@H](O)[C@@H](NC(C)=O)[C@H]([C@H](O)[C@H](O)CNC(=O)c4ccc(C5CCCCC5)cc4)O3)cc2)(C(=O)O)C[C@@H]1O |  |  | fold change (FC) [4]: 185
9 | CC(=O)N[C@H]1[C@H]([C@H](O)[C@H](O)CNC(=O)c2ccc(C3CCCCC3)cc2)O[C@@](OCCCSCCNC(=O)c2ccc(C(=O)NCCSCCCO[C@]3(C(=O)O)C[C@H](O)[C@@H](NC(C)=O)[C@H]([C@H](O)[C@H](O)CNC(=O)c4ccc(C5CCCCC5)cc4)O3)cc2)(C(=O)O)C[C@@H]1O | 0.008 | 0.1 | 
10 | CC(=O)N[C@H]1[C@H]([C@H](O)[C@H](O)CNC(=O)c2ccc(-c3ccccc3)cc2)O[C@](C(=O)O)(n2cc(CCCCNC(=O)c3ccc(C(=O)NCCCCc4cn([C@]5(C(=O)O)C[C@H](O)[C@@H](NC(C)=O)[C@H]([C@H](O)[C@H](O)CNC(=O)c6ccc(-c7ccccc7)cc6)O5)nn4)cc3)nn2)C[C@@H]1O | < 0.0001 | 0.86 | 
11 | CC(=O)N[C@H]1[C@H]([C@H](O)[C@H](O)CNC(=O)c2ccc(-c3ccccc3)cc2)O[C@@](OCCCSCCNC(=O)c2ccc(C(=O)NCCSCCCO[C@]3(C(=O)O)C[C@H](NS(=O)(=O)O)[C@@H](NC(C)=O)[C@H]([C@H](O)[C@H](O)CNC(=O)c4ccc(-c5ccccc5)cc4)O3)cc2)(C(=O)O)C[C@@H]1NS(=O)(=O)O | 138 | 65 | 
12 | CC(=O)N[C@H]1[C@H]([C@H](O)[C@H](O)CNC(=O)c2ccc(-c3ccccc3)cc2)O[C@@](OCCCSCCNC(=O)c2ccc(-c3ccc(C(=O)NCCSCCCO[C@]4(C(=O)O)C[C@H](O)[C@@H](NC(C)=O)[C@H]([C@H](O)[C@H](O)CNC(=O)c5ccc(-c6ccccc6)cc5)O4)cc3)cc2)(C(=O)O)C[C@@H]1O | 0.01 | 0.17 | 
13 | CC(=O)N[C@H]1[C@H]([C@H](O)[C@H](O)CNC(=O)c2ccc(-c3ccccc3)cc2)O[C@@](OCCCSCCC(=O)Nc2ccc(NC(=O)CCSCCCO[C@]3(C(=O)O)C[C@H](O)[C@@H](NC(C)=O)[C@H]([C@H](O)[C@H](O)CNC(=O)c4ccc(-c5ccccc5)cc4)O3)cc2)(C(=O)O)C[C@@H]1O | 1.5 | 0.1 | 
14 | CC(=O)N[C@H]1[C@H]([C@H](O)[C@H](O)CNC(=O)c2ccc(-c3ccccc3)cc2)O[C@@](OCCCSCCNC(=O)c2ccc(C(=O)NCCSCCCO[C@]3(C(=O)O)C[C@H](O)[C@@H](NC(C)=O)[C@H]([C@H](O)[C@H](O)CNC(=O)c4ccc(-c5ccccc5)cc4)O3)c(Br)c2)(C(=O)O)C[C@@H]1O | 5.9 | 0.77 | 
15 | CC(=O)N[C@H]1[C@H]([C@H](O)[C@H](O)CNC(=O)c2ccc(-c3ccccc3)cc2)O[C@@](OCCCSCCNC(=O)c2ccccc2)(C(=O)O)C[C@@H]1O |  |  | fold change (FC) [5]: 128; IC50 (B-cell receptor CD22 [6]): 0.32 nM
16 | CC(=O)N[C@H]1[C@H]([C@H](O)[C@H](O)CNC(=O)c2ccc(-c3ccccc3)cc2)O[C@@](OCCC[S+]([O-])CCNC(=O)c2ccc(C(=O)NCC[S+]([O-])CCCO[C@]3(C(=O)O)C[C@H](O)[C@@H](NC(C)=O)[C@H]([C@H](O)[C@H](O)CNC(=O)c4ccc(-c5ccccc5)cc4)O3)cc2)(C(=O)O)C[C@@H]1O (some centres not stated) | 0.013 | 0.49 | 
17 | CC(=O)N[C@H]1[C@H]([C@H](O)[C@H](O)CNC(=O)c2ccc(-c3ccccc3)cc2)O[C@@](OCc2cn(CCNC(=O)c3ccc(C(=O)NCCn4cc(CO[C@]5(C(=O)O)C[C@H](O)[C@@H](NC(C)=O)[C@H]([C@H](O)[C@H](O)CNC(=O)c6ccc(-c7ccccc7)cc6)O5)nn4)cc3)nn2)(C(=O)O)C[C@@H]1O | 0.0028 | 0.18 | 
18 | CC(=O)N[C@H]1[C@H]([C@H](O)[C@H](O)CNC(=O)c2ccc(-c3ccccc3)cc2)O[C@@](OCCCSCCNCc2ccc(CNCCSCCCO[C@]3(C(=O)O)C[C@H](O)[C@@H](NC(C)=O)[C@H]([C@H](O)[C@H](O)CNC(=O)c4ccc(-c5ccccc5)cc4)O3)cc2)(C(=O)O)C[C@@H]1O | 0.011 | 0.1 | 
19 | CC(=O)N[C@H]1[C@H]([C@H](O)[C@H](O)CNC(=O)c2ccc(-c3ccccc3)cc2)O[C@@](OCCCSCCNC(=O)c2cccc(C(=O)NCCSCCCO[C@]3(C(=O)O)C[C@H](O)[C@@H](NC(C)=O)[C@H]([C@H](O)[C@H](O)CNC(=O)c4ccc(-c5ccccc5)cc4)O3)c2)(C(=O)O)C[C@@H]1O | 0.11 | 0.79 | 
20 | CC(=O)N[C@H]1[C@H]([C@H](O)[C@H](O)CO)O[C@@](OCCCSCCNC(=O)c2ccc(C(=O)NCCSCCCO[C@]3(C(=O)O)C[C@H](O)[C@@H](NC(C)=O)[C@H]([C@H](O)[C@H](O)CNC(=O)c4ccc(-c5ccccc5)cc4)O3)cc2)(C(=O)O)C[C@@H]1O |  |  | fold change (FC) [5]: 105; Activity [7]: Dde; fold change (FC) [4]: 135; IC50 (B-cell receptor CD22 [6]): 0.39 nM
21 | CC(=O)N[C@H]1[C@H]([C@H](O)[C@H](O)CNC(=O)c2ccc(-c3ccccc3Cl)cc2)O[C@@](OCCCSCCNC(=O)c2ccc(C(=O)NCCSCCCO[C@]3(C(=O)O)C[C@H](O)[C@@H](NC(C)=O)[C@H]([C@H](O)[C@H](O)CNC(=O)c4ccc(-c5ccccc5Cl)cc4)O3)cc2)(C(=O)O)C[C@@H]1O | 1.3 | 5.3 | 
